# Biological target: T1, hemoglobin (20% hct blood) (Homo sapiens, UniProt P68871+P69905)
# T1 construct: Normal whole blood was collected from adult healthy donors; from tissue; host or cells: normal human whole blood (red blood cells), adult healthy donors
# Assay: Dose-dependent whole blood OEC studies
# Assay type: cell-based
# Details: 37° C., 1 hr; for delta p50 0.2 mM: 0.2 mM compound; for delta p50 0.5 mM: 0.5 mM compound
# Protocol: Materials: Normal whole blood was collected from adult healthy donors at the Virginia Commonwealth University after informed consent. The use of these human samples is in accordance with regulations of the IRB for Protection of Human Subjects. Compounds (50 mM-100 mM concentration in DMSO) were stored at 15° C. or room temperature until use.
# To 2 ml 20% hct blood, 0.2 or 0.5 or 1 mM compound was added and kept shaking at 37° C. for 1 hr. OEC analysis was performed as described above to determine partial pressure of oxygen (pO2) and Hb oxygen saturation values (sO2). A control without compound but containing equivalent amount of DMSO was performed (1%). GBT440 was used as a positive control. Table 2 below lists the delta p50% values.
# T1 sequence (P69905 2-142 limits assumed): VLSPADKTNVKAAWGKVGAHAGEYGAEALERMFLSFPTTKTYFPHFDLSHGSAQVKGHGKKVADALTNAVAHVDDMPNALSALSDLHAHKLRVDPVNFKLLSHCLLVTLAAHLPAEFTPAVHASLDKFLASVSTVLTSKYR
# T1 sequence (P68871 2-147 limits assumed): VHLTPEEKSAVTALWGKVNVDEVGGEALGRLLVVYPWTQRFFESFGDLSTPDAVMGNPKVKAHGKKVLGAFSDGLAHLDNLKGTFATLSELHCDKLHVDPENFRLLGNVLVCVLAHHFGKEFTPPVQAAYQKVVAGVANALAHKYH
Compound,delta p50 0.2 mM,delta p50 0.5 mM
"Cc1nc(COc2cccc(O)c2C=O)c(-c2ccnn2C(C)C)o1 [Example 68, 2-hydroxy-6-((5-(1-isopropyl-1H-pyrazol-5-yl)-2-methyloxazol-4-yl)methoxy)benzaldehyde]",−8.70%,−13.00%
"CC(C)n1nccc1-c1ncccc1COc1ccc2ncncc2c1C=O [Example 19, 6-((2-(1-isopropyl-1H-pyrazol-5-yl)pyridin-3-yl)methoxy)quinazoline-5-carbaldehyde]",−8.20%,−18.10%
"CC(C)n1nccc1-c1cccnc1COc1ccc2ncoc2c1C=O [Example 58, 6-((3-(1-isopropyl-1H-pyrazol-5-yl)pyridin-2-yl)methoxy)benzo[d]oxazole-7-carbaldehyde]",−14.30%,−34.30%
"CC(C)n1nccc1-c1ncncc1COc1ccc2cccnc2c1C=O [Example 56, 7-((4-(1-isopropyl-1H-pyrazol-5-yl)pyrimidin-5-yl)methoxy)quinoline-8-carbaldehyde]",−1.60%,−11.30%
"[2H]C([2H])(Oc1cccc(O)c1C=O)c1cccnc1-n1ccnc1C1CC1 [Example 45, 2-((2-(2-cyclopropyl-1H-imidazol-1-yl)pyridin-3-yl)methoxy-d2)-6-hydroxybenzaldehyde]",−10%,−29.80%
"CC(C)n1nccc1-c1ncccc1COc1ccc2snnc2c1C=O [Example 17, 5-((2-(1-isopropyl-1H-pyrazol-5-yl)pyridin-3-yl)methoxy)benzo[d][1,2,3]thiadiazole-4-carbaldehyde]",−12%,−30%
"CC(C)n1nccc1-c1ncccc1COc1ccc2nnsc2c1C=O [Example 18, 6-((2-(1-isopropyl-1H-pyrazol-5-yl)pyridin-3-yl)methoxy)benzo[d][1,2,3]thiadiazole-7-carbaldehyde]",−2.80%,−8.10%
"[2H]C(C)(C)n1nccc1-c1nccnc1COc1cccc(O)c1C=O [Example 51, 2-hydroxy-6-((3-(1-(propan-2-yl-2-d)-1H-pyrazol-5-yl)pyrazin-2-yl)methoxy)benzaldehyde]",−13.10%,−36.40%
"CC(C)n1nccc1-c1ncccc1COc1ccc2scnc2c1C=O [Example 16, 5-((2-(1-isopropyl-1H-pyrazol-5-yl)pyridin-3-yl)methoxy)benzo[d]thiazole-4-carbaldehyde]",−8.90%,−14.70%
"Cc1nc(-c2ccnn2C(C)C)c(COc2cccc(O)c2C=O)s1 [Example 70, 2-hydroxy-6-((4-(1-isopropyl-1H-pyrazol-5-yl)-2-methylthiazol-5-yl)methoxy)benzaldehyde]",−10.40%,−21.90%
"CC(C)n1nccc1-c1ncccc1COc1ccc2ncsc2c1C=O [Example 12, 6-((2-(1-isopropyl-1H-pyrazol-5-yl)pyridin-3-yl)methoxy)benzo[d]thiazole-7-carbaldehyde]",−26.60%,−58.40%
"CC(C)n1nccc1-c1ncccc1COc1ccc2sncc2c1C=O [Example 11, 5-((2-(1-isopropyl-1H-pyrazol-5-yl)pyridin-3-yl)methoxy)benzo[d]isothiazole-4-carbaldehyde]",−12.80%,−37.60%
"[2H]C([2H])(Oc1cccc(O)c1C=O)c1nccnc1-n1ccnc1C(C)C [Example 72, 2-hydroxy-6-((3-(2-isopropyl-1H-imidazol-1-yl)pyrazin-2-yl)methoxy-d2)benzaldehyde]",−5.10%,−16.80%

# Continued, values first:
delta p50 0.2 mM,delta p50 0.5 mM,Compound
−10.20%,−23.10%,"[2H]C([2H])(Oc1cccc(O)c1C=O)c1cncnc1-n1ccnc1C(C)C [Example 42, 2-hydroxy-6-((4-(2-isopropyl-1H-imidazol-1-yl)pyrimidin-5-yl)methoxy-d2)benzaldehyde]"
−9.30%,−14%,"[2H]C([2H])([2H])C(n1nccc1-c1ncncc1COc1cc(F)cc(O)c1C=O)C([2H])([2H])[2H] [Example 36, 4-fluoro-2-hydroxy-6-((4-(1-(propan-2-yl-1,1,1,3,3,3-d6)-1H-pyrazol-5-yl)pyrimidin-5-yl)methoxy)benzaldehyde]"
−6.80%,−25.30%,"CC(C)n1nccc1-c1ncoc1COc1cccc(O)c1C=O [Example 67, 2-hydroxy-6-((4-(1-isopropyl-1H-pyrazol-5-yl)oxazol-5-yl)methoxy)benzaldehyde]"
−15.8%,−48.4%,"CC(C)n1nccc1-c1nccc(F)c1COc1cccc(O)c1C=O [Example 74, 2-((4-fluoro-2-(1-isopropyl-1H-pyrazol-5-yl)pyridin-3-yl)methoxy)-6-hydroxybenzaldehyde]"
−11.10%,−26.10%,"[2H]C([2H])(Oc1cc(F)cc(O)c1C=O)c1cccnc1-c1c(F)cnn1C(C)C [Example 26, 4-fluoro-2-((2-(4-fluoro-1-isopropyl-1H-pyrazol-5-yl)pyridin-3-yl)methoxy-d2)-6-hydroxybenzaldehyde]"
−12.80%,−37.90%,"[2H]C([2H])(Oc1cccc(O)c1C=O)c1ncccc1-c1ccnn1C(C)C [Example 46, 2-hydroxy-6-((3-(1-isopropyl-1H-pyrazol-5-yl)pyridin-2-yl)methoxy-d2)benzaldehyde]"
−6.50%,−10.00%,"[2H]C([2H])([2H])C(n1ncc(F)c1-c1ncncc1COc1cc(F)cc(O)c1C=O)C([2H])([2H])[2H] [Example 34, 4-fluoro-2-((4-(4-fluoro-1-(propan-2-yl-1,1,1,3,3,3-d6)-1H-pyrazol-5-yl)pyrimidin-5-yl)methoxy)-6-hydroxybenzaldehyde]"
−14.40%,−30.20%,"[2H]C([2H])(Oc1cccc(O)c1C=O)c1cncnc1-c1c(F)cnn1C(C)C [Example 41, 2-((4-(4-fluoro-1-isopropyl-1H-pyrazol-5-yl)pyrimidin-5-yl)methoxy-d2)-6-hydroxybenzaldehyde]"
−11.20%,−36.20%,"CC(C)n1nccc1-c1ncsc1COc1cccc(O)c1C=O [Example 65, 2-hydroxy-6-((4-(1-isopropyl-1H-pyrazol-5-yl)thiazol-5-yl)methoxy)benzaldehyde]"
−12.90%,−35.50%,"CC(C)n1ncc(F)c1-c1ncccc1COc1ccc2ncoc2c1C=O [Example 22, 6-((2-(4-fluoro-1-isopropyl-1H-pyrazol-5-yl)pyridin-3-yl)methoxy)benzo[d]oxazole-7-carbaldehyde]"
−5.30%,−8.80%,"CC(C)n1nccc1-c1ncncc1COc1ccc2cccnc2c1C=O [Example 55, 7-((4-(1-isopropyl-1H-pyrazol-5-yl)pyrimidin-5-yl)methoxy)quinoline-8-carbaldehyde]"
−5.70%,−16.50%,"CC(C)n1nccc1-c1ocnc1COc1cccc(O)c1C=O [Example 66, 2-hydroxy-6-((5-(1-isopropyl-1H-pyrazol-5-yl)oxazol-4-yl)methoxy)benzaldehyde]"
